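Cells were grown in 96-well plates and exposed to each compound for 48 hours at five concentrations; endpoints were interpolated linearly between bracketing concentrations, or set to the highest concentration if not reached. TGI denotes the concentration required for complete inhibition of growth.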
What was measured:
Experiment in all cases: inhibition of tumour cell growth, NCI panel, 48 h
[1] = tested on: 786-0 renal
[2] = tested on: CCRF-CEM leukemia
[3] = tested on: HOP-62 NSCLC
[4] = tested on: HS 578T breast
[5] = tested on: HT29 colon
[6] = tested on: K-562 leukemia
[7] = tested on: MDA-MB-231 breast
[8] = tested on: NCI-H226 lung
[9] = tested on: NCI-H460 lung
[10] = tested on: NCI-H522 lung
[11] = tested on: PC-3 prostate
[12] = tested on: SK-MEL-28 melanoma
[13] = tested on: SW-620 colon
[14] = tested on: U251 CNS
[15] = tested on: UACC-257 melanoma
[16] = tested on: UACC-62 melanoma
[17] = tested on: BT-549 breast

| Structure (SMILES) | TGI [1] [µM] | TGI [2] [µM] | TGI [3] [µM] | TGI [4] [µM] | TGI [5] [µM] | TGI [6] [µM] | TGI [7] [µM] | TGI [8] [µM] | TGI [9] [µM] | TGI [10] [µM] | TGI [11] [µM] | TGI [12] [µM] | TGI [13] [µM] | TGI [14] [µM] | TGI [15] [µM] | TGI [16] [µM] | TGI [17] [µM] |
| --- | --- | --- | --- | --- | --- | --- | --- | --- | --- | --- | --- | --- | --- | --- | --- | --- | --- |
| COc1ccc(/C=C/C(=O)c2cc(OC)cc(OC)c2)cc1 | 11.2 | 10.1 | 14.6 | 15.1 | 4.96 | > 100 | > 28.3 | 31.6 | 14.4 | 6.29 | 20.7 | 27 | 17.6 | 7.41 | 26.9 | 16.9 | – |
| O=C(CC(NC(=O)OCc1ccccc1)C(=O)NC1Cc2ccccc2C1=O)OCc1ccccc1 (centres undefined) | > 100 | – | > 100 | > 100 | > 100 | > 100 | – | > 100 | > 100 | > 100 | > 100 | > 100 | > 100 | > 100 | > 100 | > 100 | > 100 |
| Clc1ccc(/C=C/c2nc(-c3ccccc3)cn3c2nc2ccccc23)cc1Cl | > 100 | 48 | > 100 | – | > 100 | > 100 | > 100 | > 100 | > 100 | – | > 100 | > 100 | > 100 | > 100 | > 100 | > 100 | > 100 |
| C/C(=N/NC(=O)c1ccccc1S(N)(=O)=O)C(CN1CCCCC1)C(C1=C(O)C2C=CC=CC2OC1=O)c1ccccc1 (centres undefined) | > 100 | 67.7 | > 100 | – | > 100 | > 100 | – | > 100 | > 100 | > 100 | – | – | > 100 | > 100 | > 100 | > 100 | – |
| CC(=O)OCC1OC(N2C(=O)[C@@H](Oc3ccccc3)[C@H]2/C=C/c2ccccc2)C(OC(C)=O)C(OC(C)=O)C1OC(C)=O (some centres undefined) | > 100 | > 100 | > 100 | – | > 100 | > 100 | – | > 100 | > 100 | > 100 | – | > 100 | > 100 | > 100 | > 100 | > 100 | – |
| C=CC(=O)NCCC(=O)OCn1cc(F)c(=O)[nH]c1=O | > 100 | > 100 | > 100 | > 100 | > 100 | > 100 | – | > 100 | 2.34 | > 100 | > 100 | > 100 | > 100 | > 100 | > 100 | > 100 | > 100 |
| OCC(O)COCn1cc(Cn2ncc3c(SCc4ccccc4)ncnc32)nn1 (centres undefined) | > 100 | > 100 | > 100 | – | > 100 | > 100 | > 100 | > 100 | – | 73 | > 100 | > 100 | > 100 | > 100 | > 100 | > 100 | > 100 |
| CC(C)OC(=O)NCCn1cc(-c2ccccc2)nn1 | > 100 | > 100 | > 100 | – | > 100 | > 100 | > 100 | > 100 | > 100 | > 100 | > 100 | > 100 | – | > 100 | > 100 | – | > 100 |
| COC(=NC(C)C)NC(C)C | > 100 | > 100 | > 100 | > 100 | – | > 100 | > 100 | > 100 | > 100 | – | > 100 | > 100 | > 100 | > 100 | – | > 100 | – |
| CC(NCc1c(O)ccc2c(-c3ccccc3)cc(=O)oc12)C(=O)O (centres undefined) | > 100 | > 100 | > 100 | > 100 | > 100 | > 100 | > 100 | > 100 | > 100 | > 100 | > 100 | > 100 | > 100 | > 100 | > 100 | > 100 | – |
| CCCCCCCCCCCCCCCCOCC(COP(=O)(O)OCC1OC(n2cc(CC)c(=O)[nH]c2=O)CC1O)OC(=O)CCCCCCCCCCCCCCC (centres undefined) | > 100 | > 100 | > 100 | > 100 | > 100 | > 100 | > 100 | > 100 | – | > 100 | > 100 | > 100 | > 100 | > 100 | > 100 | > 100 | – |
| COC(=O)NC(=O)NC(Cc1ccccc1)NC(=O)OCc1ccccc1 (centres undefined) | > 100 | > 100 | > 100 | – | > 100 | > 100 | 78.1 | > 100 | > 100 | > 100 | > 100 | > 100 | > 100 | > 100 | > 100 | > 100 | > 100 |
| C=CCOC(=O)Cn1cnc2c(N)ncnc21 | > 100 | > 100 | > 100 | > 100 | > 100 | > 100 | > 100 | > 100 | > 100 | – | > 100 | > 100 | > 100 | > 100 | > 100 | > 100 | – |
| CC1(OCc2ccccc2)C(=O)N2C1NCC2(C)C (centres undefined) | > 100 | > 100 | > 100 | – | > 100 | > 100 | – | > 100 | > 100 | – | – | > 100 | > 100 | > 100 | > 100 | > 100 | – |
| Cc1ccc(S(=O)(=O)NNC(=O)Nc2cccc(C(F)(F)F)c2)cc1 | > 100 | > 100 | > 100 | > 100 | > 100 | > 100 | > 100 | > 100 | > 100 | > 100 | > 100 | > 100 | > 100 | > 100 | > 100 | > 100 | – |
